Experimental data taken from PubChem BioAssay (NCI).
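Cells were grown in 96-well plates and exposed to each compound for 48 hours at five concentrations; endpoints were interpolated linearly between bracketing concentrations, or set to the highest concentration if not reached. TGI denotes the concentration required for complete inhibition of growth.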

Columns and labels:
Test in all cases: growth of human tumour cells (NCI), 48 h
SN12C renal = system: SN12C renal
HOP-62 NSCLC = system: HOP-62 NSCLC
UO-31 renal = system: UO-31 renal
CCRF-CEM leukemia = system: CCRF-CEM leukemia
RXF 393 renal = system: RXF 393 renal
HCC-2998 colon = system: HCC-2998 colon
HCT-15 colon = system: HCT-15 colon
NCI-H522 lung = system: NCI-H522 lung
SF-539 CNS = system: SF-539 CNS
K-562 leukemia = system: K-562 leukemia
HS 578T breast = system: HS 578T breast
SK-OV-3 ovarian = system: SK-OV-3 ovarian

Row | SMILES | TGI (SN12C renal) | TGI (HOP-62 NSCLC) | TGI (UO-31 renal) | TGI (CCRF-CEM leukemia) | TGI (RXF 393 renal) | TGI (HCC-2998 colon) | TGI (HCT-15 colon) | TGI (NCI-H522 lung) | TGI (SF-539 CNS) | TGI (K-562 leukemia) | TGI (HS 578T breast) | TGI (SK-OV-3 ovarian)
1 | Clc1ccc(OCC2NC3C=CC32)cn1 (centres undefined) | > 100 µM | > 100 µM | > 100 µM | > 100 µM | > 100 µM | > 100 µM | > 100 µM | > 100 µM | > 100 µM | > 100 µM | > 100 µM | > 100 µM
2 | C[C@H](CC[C@@H](O)C(C)(C)O)[C@H]1CC[C@@]2(C)[C@@H]3CC=C4[C@@H](CC[C@H](OC5OC(CO)C(O)C(O)C5O)C4(C)C)[C@]3(C)C(=O)C[C@]12C (some centres undefined) | > 100 µM | > 100 µM | > 100 µM | 70.9 µM | > 100 µM | > 100 µM | > 100 µM | > 100 µM | > 100 µM | > 100 µM | > 100 µM | > 100 µM
